Data taken from the NIST ThermoML archive (doi:10.1021/je900327x).
Numbers after ± are expanded uncertainties.

Experiments:
[1] = refractive index (Na D-line) (dimensionless); details: 298.15 K; 101.33 kPa; Liquid; Standard Abbe refractometry
[2] = 298.15 K; 101.33 kPa; Liquid; Vibrating tube method

| refractive index [1] | mass density [2] [kg/m3] | Compound |
| --- | --- | --- |
| 1.39779 ± 0.00068 | 1058.87 ± 0.15 | C1COCO1 [1,3-dioxolane] |
| 1.37509 ± 0.00068 | 781.01 ± 0.2 | CC(C)O [propan-2-ol] |
| 1.38887 ± 0.00068 | 687.73 ± 0.21 | CC(C)CC(C)(C)C [2,2,4-trimethylpentane] |
